{"source": "patent US10125164B2", "about": "“Process for preparing D-arginyl-2,6-dimethyl-L-tyrosyl-L-lysyl-L-phenylalaninamide” (FLAMMA S.P.A., priority 2014, dated 2018)", "origin": "cited, not measured here", "key": {"mu-opioid receptor": {"target": "mu-opioid receptor (Homo sapiens, UniProt P35372)", "sequence (P35372 whole entry)": "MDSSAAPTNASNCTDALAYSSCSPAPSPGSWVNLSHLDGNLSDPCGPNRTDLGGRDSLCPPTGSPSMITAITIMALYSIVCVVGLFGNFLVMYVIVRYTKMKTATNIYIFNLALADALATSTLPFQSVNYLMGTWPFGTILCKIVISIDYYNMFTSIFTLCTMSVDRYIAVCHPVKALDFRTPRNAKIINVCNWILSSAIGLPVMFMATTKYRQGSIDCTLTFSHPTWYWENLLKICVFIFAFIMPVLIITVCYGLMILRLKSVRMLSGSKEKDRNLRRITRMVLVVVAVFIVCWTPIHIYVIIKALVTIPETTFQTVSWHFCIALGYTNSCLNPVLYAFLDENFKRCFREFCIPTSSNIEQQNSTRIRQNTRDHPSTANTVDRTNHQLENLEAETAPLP"}, "[1]": {"tested_on": "G93A mouse model of amyotrophic lateral sclerosis", "conditions": "5 mg/kg/day i.p. starting at 30 days of age"}, "mouse pancreatic islets": {"tested_on": "mouse pancreatic islets", "conditions": "3 mg/kg i.p. qd for 2 weeks"}, "[2]": {"tested_on": "unilateral ureteral obstruction", "conditions": "rats, intraperitoneal 1 and 3 mg/kg, 1 day prior to obstruction and every day thereafter for 14 days"}, "N2A neuronal cell line": {"tested_on": "N2A neuronal cell line", "conditions": "compound <1 nM"}, "[3]": {"tested_on": "SH-SY5Y neuronal cell line", "conditions": "compound <1 nM"}, "[4]": {"tested_on": "inner mitochondrial membrane"}}, "note": "Where a SMILES comes first, the peptide text is derived from it. [ ]: non-standard residue; d: D form. Dmt = Cc1cc(O)cc(C)c1C[C@H](N)C(=O)O"}
{"smiles": "Cc1cc(O)cc(C)c1C[C@H](NC(=O)[C@H](N)CCCNC(=N)N)C(=O)N[C@@H](CCCCN)C(=O)N[C@@H](Cc1ccccc1)C(N)=O", "note": "[D-Arginyl-2,6-dimethyl-L-tyrosyl-L-lysyl-L-phenylalaninamide] (H-[dR][Dmt]KF-NH2)", "values": [{"measurement": "mu-opioid receptor agonist activity", "setting": "mu-opioid receptor", "value": "does not have mu-opioid receptor agonist activity"}, {"measurement": "disease onset", "setting": "[1]", "value": "significant delay"}, {"measurement": "apoptosis in pancreatic islets caused by streptozotocin", "setting": "mouse pancreatic islets", "value": "prevented"}, {"measurement": "insulin reduction in pancreatic islets caused by streptozotocin", "setting": "mouse pancreatic islets", "value": "prevented"}, {"measurement": "interstitial fibrosis", "setting": "[2]", "value": "significantly decreased"}, {"measurement": "macrophage infiltration", "setting": "[2]", "value": "significantly decreased"}, {"measurement": "tubular damage", "setting": "[2]", "value": "significantly decreased"}, {"measurement": "intracellular reactive oxygen species", "setting": "N2A neuronal cell line", "value": "significantly reduced"}, {"measurement": "mitochondrial potential", "setting": "N2A neuronal cell line", "value": "increased"}, {"measurement": "tBHP-induced apoptosis", "setting": "N2A neuronal cell line", "value": "prevented"}, {"measurement": "intracellular reactive oxygen species", "setting": "[3]", "value": "significantly reduced"}, {"measurement": "mitochondrial potential", "setting": "[3]", "value": "increased"}, {"measurement": "tBHP-induced apoptosis", "setting": "[3]", "value": "prevented"}, {"measurement": "antioxidant activity", "setting": "[4]", "value": "showed antioxidant activity"}]}
